Series [1] has as its system L5178Y. Briefly: Induction of apoptosis in human MDR1 gene transfected mouse L5178 Y cells assessed as total apoptosis at 5 ug/mL after 40 mins. The series is classed as functional.
Series [2] has as its system L5178Y. Briefly: Induction of apoptosis in human MDR1 gene transfected mouse L5178 Y cells assessed as early apoptosis at 5 ug/mL after 40 mins. The series is classed as functional.
Series [3] has as its system L5178Y. Put plainly: Induction of apoptosis in human MDR1 gene transfected mouse L5178 Y cells assessed as early apoptosis at 50 ug/mL after 40 mins. It counts as functional.
Series [4] relates to L5178Y. Briefly: Induction of apoptosis in human MDR1 gene transfected mouse L5178 Y cells assessed as necrosis at 50 ug/mL after 40 mins. The series is classed as functional.
For series [5], the system named is L5178Y. Put plainly: Induction of apoptosis in human MDR1 gene transfected mouse L5178 Y cells assessed as necrosis at 5 ug/mL after 40 mins. It counts as functional.
The subject of series [6] is L5178Y. Briefly: Induction of apoptosis in human MDR1 gene transfected mouse L5178 Y cells assessed as total apoptosis at 50 ug/mL after 40 mins. It counts as functional.
Series [7] can be described thus: Antiproliferative activity against human MDR1 gene transfected mouse L5178 Y cells after 72 hrs. The series is classed as functional. To be noted: L5178Y, read-out: ID50 (the source's name).
For series [8], the system named is L5178Y. Put plainly: Induction of apoptosis in human MDR1 gene transfected mouse L5178 Y cells assessed as total apoptosis at 75 ug/mL after 40 mins. It counts as functional.
For series [9], the system named is L5178Y. Briefly: Induction of apoptosis in human MDR1 gene transfected mouse L5178 Y cells assessed as necrosis at 7 ug/mL after 40 mins. It counts as functional.
Series [10] relates to L5178Y. Put plainly: Induction of apoptosis in human MDR1 gene transfected mouse L5178 Y cells assessed as necrosis at 75 ug/mL after 40 mins. It counts as functional.
Series [11] has as its system L5178Y. Put plainly: Induction of apoptosis in human MDR1 gene transfected mouse L5178 Y cells assessed as early apoptosis at 75 ug/mL after 40 mins. It counts as functional.
The subject of series [12] is L5178Y. Put plainly: Induction of apoptosis in human MDR1 gene transfected mouse L5178 Y cells assessed as early apoptosis at 7 ug/mL after 40 mins. The series is classed as functional.
Series [13] addresses T1, ATP-dependent translocase ABCB1 (Homo sapiens, UniProt P08183). Briefly: Inhibition of P-gp mediated efflux-pump activity in human MDR1 gene transfected mouse L5178 Y cells at 4 ug/mL by rhodamine 123 accumulation test. The series is classed as cell-based.
Series [14] relates to L5178Y. Briefly: Induction of apoptosis in human MDR1 gene transfected mouse L5178 Y cells assessed as total apoptosis at 7 ug/mL after 40 mins. It counts as functional.
In series [15] the target is T1, ATP-dependent translocase ABCB1. Put plainly: Inhibition of P-gp mediated efflux-pump activity in human MDR1 gene transfected mouse L5178 Y cells at 40 ug/mL by rhodamine 123 accumulation test. The series is classed as cell-based.

Molecules are shown by their SMILES. In brackets after ≈: the same amount, converted by molar mass.

T1 sequence (P08183 whole entry): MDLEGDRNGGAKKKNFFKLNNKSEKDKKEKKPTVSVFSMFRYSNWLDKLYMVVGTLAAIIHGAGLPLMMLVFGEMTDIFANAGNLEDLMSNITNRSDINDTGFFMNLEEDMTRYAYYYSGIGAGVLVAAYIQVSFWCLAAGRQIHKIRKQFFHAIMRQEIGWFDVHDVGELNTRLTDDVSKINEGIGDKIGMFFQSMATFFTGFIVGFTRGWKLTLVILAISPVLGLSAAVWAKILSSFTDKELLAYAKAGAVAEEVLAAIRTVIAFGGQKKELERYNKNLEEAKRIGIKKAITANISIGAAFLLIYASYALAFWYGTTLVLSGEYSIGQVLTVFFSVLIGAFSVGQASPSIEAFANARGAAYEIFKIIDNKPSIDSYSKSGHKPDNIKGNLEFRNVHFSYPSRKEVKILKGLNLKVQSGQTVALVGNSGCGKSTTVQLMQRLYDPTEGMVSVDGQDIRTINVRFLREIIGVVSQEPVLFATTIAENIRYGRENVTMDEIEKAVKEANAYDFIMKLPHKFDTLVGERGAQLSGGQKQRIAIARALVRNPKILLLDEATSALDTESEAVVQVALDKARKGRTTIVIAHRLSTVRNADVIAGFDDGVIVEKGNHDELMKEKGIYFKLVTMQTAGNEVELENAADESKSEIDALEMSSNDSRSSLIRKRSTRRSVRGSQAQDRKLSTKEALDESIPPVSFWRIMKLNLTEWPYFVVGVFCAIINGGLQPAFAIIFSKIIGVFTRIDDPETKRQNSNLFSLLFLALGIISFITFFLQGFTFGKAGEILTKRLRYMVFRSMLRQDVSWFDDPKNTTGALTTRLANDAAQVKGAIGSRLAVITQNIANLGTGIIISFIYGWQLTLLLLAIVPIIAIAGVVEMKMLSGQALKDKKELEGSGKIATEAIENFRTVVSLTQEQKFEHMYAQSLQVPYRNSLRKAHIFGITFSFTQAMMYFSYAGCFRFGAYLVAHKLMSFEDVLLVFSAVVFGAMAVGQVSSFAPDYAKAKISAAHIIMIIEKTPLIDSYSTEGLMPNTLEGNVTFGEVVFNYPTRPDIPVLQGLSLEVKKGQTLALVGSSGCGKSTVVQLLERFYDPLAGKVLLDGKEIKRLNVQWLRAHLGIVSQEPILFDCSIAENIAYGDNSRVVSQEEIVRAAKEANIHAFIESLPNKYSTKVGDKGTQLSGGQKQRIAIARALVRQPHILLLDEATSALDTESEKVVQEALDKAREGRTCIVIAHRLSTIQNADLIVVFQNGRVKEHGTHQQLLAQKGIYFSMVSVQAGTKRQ

`c1ccc2c(c1)Nc1c(ccc3ccccc13)S2`: the Activity is given as 65.01% in [1]; 1.72% in series [2]; 0.02% in series [3]; 1.81% in [4]; 16.3% in series [5]; 98% in series [6].
In the case of `COc1cccc2c1C(=O)c1c(O)c3c(c(O)c1C2=O)C[C@@](O)(C(=O)CO)C[C@@H]3O[C@H]1C[C@H](N)[C@H](O)[C@H](C)O1` [DOXORUBICIN], the IC50 in series [7] was 0.35 µg/mL (≈ 0.644 µM).
For the compound `C/C1=C\[C@@H]2[C@H](CC[C@@]3(C)O[C@@H]3[C@H]3[C@@H](O)[C@@H](C)C[C@]3(OC(=O)/C=C/c3ccccc3)C1=O)C2(C)C` [JOLKINOL B], the Activity in [8] is given as 38.83%; in series [9] it was 1.16%; in series [10] it was 0.41%; in series [11], 4.06%; in [12] it was 6.91%; in [14], 27%. The figures for the Fluorescence intensity in [13] and in series [15] were 449.2 and 649.3, respectively.
Consider `CC(=O)OC[C@H]1C[C@H](OC(=O)/C=C/c2ccccc2)C(=O)/C(C)=C/[C@@H]2[C@H](CC[C@@]3(C)O[C@@H]3C[C@H]1O)C2(C)C` [LATILAGASCENES A], for which the Activity in series [8] is 55.24%; in series [9], 0.85%; in series [10], 2.16%; in series [11], 33.88%; in series [12], 7.79%; in [14], 22.7%.
As to `C/C1=C\[C@@H]2[C@H](CC[C@@]3(C)O[C@@H]3C[C@@H](O)[C@@H](CO)C[C@H](OC(=O)/C=C/c3ccccc3)C1=O)C2(C)C` [LATILAGASCENES B], the Activity in [8] was found to be 96.31%; in series [9], 0.79%; in series [10], 1.82%; in series [11], 1.38%; in series [12], 5.87%; in series [14], 18.96%. For the same compound, the IC50 in series [7] amounted to 4.58 µg/mL (≈ 9.49 µM).
As for `CC(=O)OC[C@H]1C[C@H](OC(=O)/C=C/c2ccccc2)C(=O)/C(C)=C/[C@@H]2[C@H](CC[C@@]3(C)O[C@@H]3C[C@H]1OC(C)=O)C2(C)C` [LATILAGASCENES C], the Activity in series [8] turned out to be 41.31%; in series [9], 0.69%; in series [10], 3.93%; in [11], 1.04%; in series [12], 7.8%; in [14] it was 21.9%.
On to `C/C1=C\[C@@H]2[C@H](CC[C@@]3(C)O[C@@H]3C[C@@H](O)[C@@H](COC(=O)c3ccccc3)C[C@H](OC(=O)/C=C/c3ccccc3)C1=O)C2(C)C` [LATILAGASCENES D], for which the Activity amounted to 67.97% in [8]; 1.54% in series [9]; 6.83% in series [10]; 2.96% in [11]; 12.7% in series [12]; 34.7% in series [14]. Further, the results for the Fluorescence intensity in series [13] and in [15] were 685.9 and 714, respectively.
Take `CC1(C)[C@@H]2/C=C(\CO)C(=O)[C@@H](OC(=O)/C=C/c3ccccc3)C[C@H](COC(=O)c3ccccc3)[C@H](O)C[C@H]3O[C@]3(C)CC[C@@H]21` [LATILAGASCENES E]: the figures for the Fluorescence intensity in series [13] and in series [15] were 882.2 and 810.8, respectively.
As for `C/C1=C\[C@@H]2[C@H](CC[C@@]3(C)O[C@@H]3C[C@@H](O)[C@@H](C)CC(OC(=O)c3ccccc3)C1=O)C2(C)C` (stereo partly specified) [LATILAGASCENES F], the Fluorescence intensity in series [13] amounted to 212.6; in [15], 1029.4.

The values above are taken from ChEMBL document CHEMBL1144490, “Apoptosis induction and modulation of P-glycoprotein mediated multidrug resistance by new macrocyclic lathyrane-type diterpenoids” (Bioorg Med Chem, 2007).
